The values below come from US20110213143A1, “COMPOUND HAVING TAFIA INHIBITORY ACTIVITY” (TAISHO PHARMACEUTICAL CO., LTD., priority 2008, published 2011).

Structures can show the parent of a compound that is named as a salt.

This test concerns the target T1, TAFIa (Homo sapiens, UniProt Q96IY4).
T1 construct: purchased Enzyme Research Laboratories
T1 sequence (Q96IY4 115-423): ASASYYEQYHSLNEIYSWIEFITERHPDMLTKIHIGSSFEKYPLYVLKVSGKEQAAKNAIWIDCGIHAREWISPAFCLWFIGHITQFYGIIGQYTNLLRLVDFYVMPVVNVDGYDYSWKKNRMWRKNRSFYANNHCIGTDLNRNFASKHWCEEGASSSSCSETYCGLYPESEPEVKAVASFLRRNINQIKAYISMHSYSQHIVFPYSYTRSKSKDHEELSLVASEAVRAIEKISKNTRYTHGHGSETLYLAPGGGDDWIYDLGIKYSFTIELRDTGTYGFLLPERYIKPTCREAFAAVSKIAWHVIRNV
Briefly: TAFIa inhibition test (Hip-Arg substrate, absorbance at 405 nm). It is filed as biochemical. As to conditions: 40 minutes at room temperature, read-out: IC50 (TAFIa inhibitory activity). On the procedure: Test 1 [TAFIa Inhibition Test]
Compounds of the present invention were measured for their TAFIa inhibitory activity as follows based on the method described in Thromb. Haemost. 371 (1988).
(a) Preparation of TAFIa Solution
To 450 μl of TAFI (the product of Enzyme Research Laboratories whose concentration was adjusted to 18 μg/ml with buffer A: 100 mM Tris-HCl buffer, pH 7.4), 45 μl of a thrombomodulin solution (a rabbit lung derived thrombomodulin produced by American Diagnostia whose concentration was adjusted to 1 μg/ml with buffer B: 50 mM Tris-HCl, pH 7.5, containing 0.15 M NaCl) and 45 μl of a thrombin solution (a freeze-dried human plasma derived thrombin produced by Sigma and dissolved in water to have a concentration of 30 μ/ml) were added and the mixture was left to stand for 25 minutes at room temperature.
(b) Method of Measuring TAFIa Inhibitory Activity
To wells on a 96-well microplate, the above-prepared TAFIa solution, a test compound, and a substrate solution (Hip-Arg produced by Sigma and dissolved in buffer C of 100 mM Tris-HCl buffer, pH 8.3, to have a concentration of 3.6 mM) were added in respective amounts of 20 μl/well, 10 μl/well, and 70 μl/well. The individual components were mixed well and the reaction was carried out for 40 minutes at room temperature.
Subsequently, a color former (1% cyanuric chloride in 1,4-dioxane) was added in an amount of 50 μl to each well and the plate was left to stand for 3 minutes at room temperature; then, the absorbance at 405 nm was measured with a microplate reader (Spectramax M2 of Molecular Devices). With the absorbance in the absence of a test compound minus the absorbance in the absence of an enzyme being taken as 100%, the concentration of the compound that inhibited 50% of the reaction (IC50) was calculated from the absorbance in the presence of the test compound minus the absorbance in the absence of the enzyme.
For several compounds of the present invention, the above test was conducted and on the basis of the results of measurements, TAFIa inhibitory activity was calculated to give the results shown in Table 2.

Broadly, the IC50 is the midpoint of a concentration-inhibition curve. In the case of `NCCCC(Cc1ncn2c1CCc1ccncc1-2)C(=O)O` (stereo not drawn) [Example 6, 5-amino-2-(4,5-dihydroimidazo[1,5-a] [1,7]naphthyridin-3-ylmethyl)pentanoic acid], the IC50 was determined as 1600 nM.
In the case of `NCCCC(Cc1ncn2c1CCCc1ccccc1-2)C(=O)O` (stereo not drawn) [Example 4, 5-amino-2-(5,6-dihydro-4H-imidazo[1,5-a] [1]benzazepin-3-ylmethyl)pentanoic acid], the IC50 was determined as 3300 nM.
Turning to `NCCC[C@@H](Cc1ncn2c1CCc1cc(C3CCCCC3)ccc1-2)C(=O)O` [Example 25, (2S)-5-amino-2-[(7-cyclohexyl-4,5-dihydroimidazo[1,5-a]quinolin-3-yl)methyl]pentanoic acid dihydrochloride], the IC50 was determined as 28 nM.
On to `Cc1ccc2c(c1)CCc1c(C[C@H](CCCN)C(=O)O)ncn1-2` [Example 29, (2S)-5-amino-2-[(7-methyl-4,5-dihydroimidazo[1,5-a]quinolin-3-yl)methyl]pentanoic acid dihydrochloride], for which the half-maximal inhibitory concentration (IC50) is 25 nM.
With `NCCCC(Cc1ncn2c1CCc1ncccc1-2)C(=O)O` (stereo not drawn) [Example 19, 5-amino-2-(4,5-dihydroimidazo[1,5-a] [1,5]naphthyridin-3-ylmethyl)pentanoic acid], the 50% inhibitory concentration (IC50) came to 580 nM.
Consider `CNCCCC(Cc1ncn2c1CCc1ccccc1-2)C(=O)O` (stereo not drawn) [Example 20, 2-(4,5-dihydroimidazo[1,5-a]quinolin-3-ylmethyl)-5-(methylamino)pentanoic acid], for which the IC50 stood at 2300 nM.
Take `NCCCC(Cc1ncn2c1CCc1cc(OC3CCCCC3)ccc1-2)C(=O)O` (stereo not drawn) [Example 16, 5-amino-2-{[7-(cyclohexyloxy)-4,5-dihydroimidazo[1,5-a]quinolin-3-yl)methyl]pentanoic acid]: the IC50 stood at 180 nM.
As to `CCCc1ccc2c(c1)CCc1c(CC(CCCN)C(=O)O)ncn1-2` (stereo not drawn) [Example 17, 5-amino-2-[(7-propyl-4,5-dihydroimidazo[1,5-a]quinolin-3-yl)methyl]pentanoic acid dihydrochloride], the concentration for half-maximal inhibition (IC50) is 67 nM.
For the molecule `NCCC[C@@H](Cc1ncn2c1CCc1ccccc1-2)C(=O)O` [Example 2, (2S)-5-amino-2-(4,5-dihydroimidazo[1,5-a]quinolin-3-ylmethyl)pentanoic acid], the IC50 stood at 63 nM.
Take `NCCCC(Cc1ncn2c1COc1ccccc1-2)C(=O)O` (stereo not drawn) [Example 5, 5-amino-2-(4H-imidazo[5,1-c][1,4]benzoxazin-3-ylmethyl)pentanoic acid]: the concentration for half-maximal inhibition (IC50) was 1100 nM.
On to `NCCCC(Cc1ncn2c1CCc1cc(-c3ccccc3)ccc1-2)C(=O)O` (stereo not drawn) [Example 15, 5-amino-2-[(7-phenyl-4,5-dihydroimidazo[1,5-a]quinolin-3-yl)methyl]pentanoic acid dihydrochloride], for which the IC50 was 140 nM.
In the case of `NCCC[C@@H](Cc1ncn2c1CCc1cc(CCC3CCCCC3)ccc1-2)C(=O)O` [Example 24, (25)-5-amino-2-{[7-(2-cyclohexylethyl)-4,5-dihydroimidazo[1,5-a]quinolin-3-yl]methyl}pentanoic acid dihydrochloride], the IC50 amounted to 43 nM.
As for `CCOc1ccc2c(c1)CCc1c(CC(CCCN)C(=O)O)ncn1-2` (stereo not drawn) [Example 14, 5-amino-2-[(7-ethoxy-4,5-dihydroimidazo[1,5-a]quinolin-3-yl)methyl]pentanoic acid], the IC50 stood at 110 nM.
Consider `NCCC[C@H](Cc1ncn2c1CCc1ccccc1-2)C(=O)O` [Example 3, (2R)-5-amino-2-(4,5-dihydroimidazo[1,5-a]quinolin-3-ylmethyl)pentanoic acid], for which the IC50 stood at 860 nM.
`Cc1cccc2c1CCc1c(CC(CCCN)C(=O)O)ncn1-2` (stereo not drawn) [Example 10, 5-amino-2-[(6-methyl-4,5-dihydroimidazo[1,5-a]quinolin-3-yl)methyl]pentanoic acid]: the IC50 stood at 150 nM.
Consider `NCCCC(Cc1ncn2c1CNc1ccccc1-2)C(=O)O` (stereo not drawn) [Example 18, 5-amino-2-(4,5-dihydroimidazo[1,5-a]quinoxalin-3-ylmethyl)pentanoic acid], for which the IC50 turned out to be 630 nM.
Regarding `NCCCCC(C(=O)O)c1ncn2c1CCc1ccccc1-2` (stereo not drawn) [Example 13, 6-amino-2-(4,5-dihydroimidazo[1,5-a]quinolin-3-yl)hexanoic acid], the IC50 turned out to be 3300 nM.
On to `Cc1ccc2c(c1)-n1cnc(CC(CCCN)C(=O)O)c1CC2` (stereo not drawn) [Example 12, 5-amino-2-[(8-methyl-4,5-dihydroimidazo[1,5-a]quinolin-3-yl)methyl]pentanoic acid], for which the half-inhibitory concentration (IC50) is 1800 nM.
In the case of `NCCCC(Cc1ncn2c1Cc1ccccc1C2)C(=O)O` (stereo not drawn) [Example 21, 5-amino-2-(5,10-dihydroimidazo[1,5-b]isoquinolin-1-ylmethyl)pentanoic acid], the IC50 amounted to 1400 nM.
Consider `NCCC[C@@H](Cc1ncn2c1CCc1cc(F)ccc1-2)C(=O)O` [Example 26, (2S)-5-amino-2-[(7-fluoro-4,5-dihydroimidazo[1,5-a]quinolin-3-yl]methyl}pentanoic acid dihydrochloride], for which the half-maximal inhibitory concentration (IC50) amounted to 72 nM.
`Cc1ccc2c(c1)CCc1c(CC(CCCN)C(=O)O)ncn1-2` (stereo not drawn) [Example 11, 5-amino-2-[(7-methyl-4,5-dihydroimidazo[1,5-a]quinolin-3-yl)methyl]pentanoic acid dihydrochloride]: the IC50 worked out at 61 nM.
On to `Cc1cccc2c1-n1cnc(CC(CCCN)C(=O)O)c1CC2` (stereo not drawn) [Example 7, 5-amino-2-[(9-methyl-4,5-dihydroimidazo[1,5-a]quinolin-3-yl)methyl]pentanoic acid dihydrochloride], for which the IC50 was 6400 nM.
As for `NCCCC(Cc1ncn2c1CCc1ccccc1-2)C(=O)O` (stereo not drawn) [Example 1, 5-amino-2-(4,5-dihydroimidazo[1,5-a]quinolin-3-ylmethyl)pentanoic acid], the IC50 was found to be 95 nM.
In the case of `CC(C)c1ccc2c(c1)CCc1c(C[C@H](CCCN)C(=O)O)ncn1-2` [Example 28, (2S)-5-amino-2-[(7-isopropyl-4,5-dihydroimidazo[1,5-a]quinolin-3-yl)methyl]pentanoic acid dihydrochloride] it was 33 nM.
To `NCCCC(Cc1ncn2c1CCc1cc(C(F)(F)F)ccc1-2)C(=O)O` (stereo not drawn) [Example 27, 5-amino-2-{[7-(trifluoromethyl)-4,5-dihydroimidazo[1,5-a]quinolin-3-yl]methyl}pentanoic acid dihydrochloride] belongs 410 nM; to `CCc1cccc2c1CCc1c(CC(CCCN)C(=O)O)ncn1-2` (stereo not drawn) [Example 8, 5-amino-2-[(6-ethyl-4,5-dihydroimidazo[1,5-a]quinolin-3-yl)methyl]pentanoic acid], 270 nM.
On to `NCCCC(Cc1ncn2c1CCc1ccccc1-2)c1nnn[nH]1` (stereo not drawn) [Example 23, 5-(4,5-dihydroimidazo[1,5-a]quinolin-3-yl)-4-(1H-tetrazol-5-yl)pentan-1-amine], for which the IC50 turned out to be 4400 nM.
Turning to `Nc1cc(C(Cc2ncn3c2CCc2ccccc2-3)C(=O)O)ccn1` (stereo not drawn) [Example 22, 2-(2-aminopyridin-4-yl)-3-(4,5-dihydroimidazo[1,5-a]quinolin-3-yl)propanoic acid dihydrochloride], the half-maximal inhibitory concentration (IC50) was 5100 nM.
For `CCCc1ccc2c(c1)CCc1c(C[C@H](CCCN)C(=O)O)ncn1-2` [Example 30, (S)-5-amino-2-((7-propyl-4,5-dihydroimidazo[1,5-a]quinolin-3-yl)methyl)pentanoic acid dihydrochloride], the IC50 worked out at 28 nM.
For `NCCCC(Cc1ncn2c1CCc1c(Cl)cccc1-2)C(=O)O` (stereo not drawn) [Example 9, 5-amino-2-[(6-chloro-4,5-dihydroimidazo[1,5-a]quinolin-3-yl)methyl]pentanoic acid], the half-maximal inhibitory concentration (IC50) stood at 190 nM.
